21 compounds from ChEMBL document CHEMBL4038312 (J Med Chem, 2017) can be followed below.

≈ marks a conversion by molar mass, not a printed value. Where only a bound is given, the exact number is not on record here.

A short description of series [1]: physchem. The conditions noted are these: octanol/water, pH 7.4.
Series [2] can be described thus: physchem.
Series [3] is described as follows: Dissociation constant, pKa of the compound. The class given is physicochemical.
A short description of series [4]: Solubility of the compound at pH 6.5. Format: physicochemical. The conditions noted are these: buffer.
Series [5] is described as follows: Volume of distribution at steady state in dog at 0.1 mg/kg, iv. The class given is ADME, organism-based, Canis lupus familiaris. The conditions noted are these: in vivo, read-out: Vdss.
Series [6] can be described thus: AUC (0 to infinity) in rat at 3 mg/kg, po. The class given is ADME, organism-based. On the set-up: dose 3 mg/kg, time infinity, route oral. The conditions noted are these: in vivo.
Series [7] is described as follows: Permeability in RRCK cells. The note with it: dog, MDCK; read-out: permeability. Format: ADME, cell-based, Canis lupus familiaris, MDCKII-LE.
Series [8] can be described thus: Drug excretion in iv dosed bile duct cannulated rat bile after 6 hrs. The class given is ADME, organism-based. The conditions noted are these: read-out: Drug excretion.
A short description of series [9]: Cmax in rat at 3 mg/kg, po. Format: ADME, organism-based. On the set-up: dose 3 mg/kg, route oral. The note with it: in vivo.
The nature of series [10]: in vivo. The note with it: rat, po, 3 mg/kg.
Series [11] in a line: Volume of distribution at steady state in rat at 1 mg/kg, iv. The note with it: in vivo, read-out: Vdss. Format: ADME, organism-based.
A short description of series [12]: Oral bioavailability in dog at […]. Format: ADME, organism-based, Canis lupus familiaris. The note with it: in vivo.
The nature of series [13]: Cmax in dog at […], po. The class given is ADME, organism-based, Canis lupus familiaris. More on the design: dose 0.13 mg/kg, route oral. The conditions noted are these: in vivo.
Series [14] can be described thus: AUC (0 to infinity) in dog at […], po. The class given is ADME, organism-based, Canis lupus familiaris. The conditions noted are these: in vivo. More on the design: dose 0.13 mg/kg, time infinity, route oral.
A short description of series [15]: Apparent permeability from apical to basolateral side in MDCK cells harboring MDR1. Format: ADME, cell-based, Canis lupus familiaris. The note with it: dog.
Series [16] is described as follows: Cmax in human at 100 ug, po. More on the design: dose 100 ug, route oral. The class given is ADME. The conditions noted are these: in vivo.
The subject of series [17] is Homo sapiens. Put plainly: Unbound Cmax in human at 2400 mg, po. The conditions noted are these: in vivo. The class given is ADME.
Series [18] can be described thus: Volume of distribution at steady state in human at 100 ug, iv. The note with it: in vivo, read-out: Vdss. The class given is ADME.
Series [19] is described as follows: Cmax in dog at 3 mg/kg, po. The class given is ADME, organism-based, Canis lupus familiaris. On the set-up: dose 3 mg/kg, route oral. The note with it: in vivo.
Series [20] is described as follows: Oral bioavailability in human at 100 ug. The class given is ADME, organism-based. The conditions noted are these: in vivo.
Series [21] is described as follows: Apparent permeability from basolateral to apical side in MDCK cells harboring MDR1. Format: ADME, cell-based, Canis lupus familiaris. The conditions noted are these: dog.
Series [22] is described as follows: Tmax in dog at 3 mg/kg, po. The class given is ADME, organism-based, Canis lupus familiaris. The note with it: in vivo.
The nature of series [23]: Tmax in rat at 3 mg/kg, po. The class given is ADME, organism-based. The conditions noted are these: in vivo.
Series [24] is described as follows: Basic dissociation constant, pKa of the compound. Format: physicochemical.
Series [25] in a line: Oral bioavailability in dog at 3 mg/kg. Format: ADME, organism-based, Canis lupus familiaris. The note with it: in vivo.

In [1], `N#Cc1cc(S(=O)(=O)Nc2ncns2)ccc1Oc1ccc(C(F)(F)F)cc1-c1cccnn1` had a logD of 0.7.

Consider `N#Cc1cc(S(=O)(=O)Nc2ncns2)ccc1Oc1ccc(C(F)(F)F)cc1-c1ccncn1`, for which the pH-dependent lipophilicity (logD) in series [1] came to 0.9.

For the compound `Cn1nccc1-c1cc(Cl)ccc1Oc1ccc(S(=O)(=O)Nc2nncs2)cc1C#N`, the pKa in [2] turned out to be 4.5.

As to `O=S(=O)(Nc1cscn1)c1cc(Cl)c(Oc2ccc(C(F)(F)F)cc2-c2ccnnc2)cc1F`, in series [1], the logD was 1.6. Moreover, the pKa in [3] was found to be 5.6.

On to `Cn1nccc1-c1cc(Cl)ccc1Oc1ccc(S(=O)(=O)Nc2ncns2)cc1F`, for which the pKa in series [2] is 3.5.

In the case of `N#Cc1cc(S(=O)(=O)Nc2ncns2)ccc1Oc1ccc(Cl)cc1-c1ccn[nH]1`, the logD in series [1] was 1.6.

For the compound `Cn1nccc1-c1cc(Cl)ccc1Oc1ccc(S(=O)(=O)Nc2ncns2)cc1C#N`, the pKa in [2] was determined as 3.5.

For the compound `Cn1nccc1-c1cc(Cl)ccc1Oc1cc(F)c(S(=O)(=O)Nc2nncs2)cc1Cl`, the pKa in series [2] came to 4.5.

`N#Cc1cc(S(=O)(=O)Nc2ncns2)ccc1Oc1ccc(Cl)cc1-c1ccnc(N)c1` yielded a logD in series [1] of 1.6.

Compound `CCN1CC(n2nccc2-c2cc(Cl)ccc2Oc2cc(F)c(S(=O)(=O)Nc3cscn3)cc2F)C1` yielded a logD in series [1] of 1.6.

With `N#Cc1cc(S(=O)(=O)Nc2ncns2)ccc1Oc1ccc(C(F)(F)F)cc1-c1ccnnc1`, the solubility in series [4] was more than 300 µM. Also, the figures for the Vd in [5] and in series [11] were 1.2 L/kg and 1.3 L/kg, respectively. Moreover, the total exposure AUC(0-inf) in series [6] came out at 5 ng·h/mL. The compound further had a logD in series [1] of 0.7. Besides, the Papp in series [7] was determined as 0.7 ×10⁻⁶ cm/s. Besides, the dose excreted at 6 h in [8] was found to be 73%. The compound further had a Cmax in series [9] of 1 ng/mL. For the same compound, the bioavailability in series [10] is less than 1%.

In [1], `N#Cc1cc(S(=O)(=O)Nc2ncns2)ccc1Oc1ccc(Cl)cc1-c1cn[nH]c1N` showed a logD of 1.

`CN1CC(n2nccc2-c2cc(Cl)ccc2Oc2cc(F)c(S(=O)(=O)Nc3cscn3)cc2F)C1` showed a logD in series [1] of 1.3.

Turning to `N#Cc1cc(S(=O)(=O)Nc2ncns2)ccc1Oc1ccc(Cl)cc1-c1cn[nH]c1`, the solubility in series [4] came to 259 µM (≈ 119 µg/mL). Besides, the bioavailability in series [12] was 23%. The Vd was 0.5 L/kg in [5] and 2.3 L/kg in series [11]. Further, in [1], the logD was found to be 1.7. Moreover, the highest concentration (Cmax) in series [13] was found to be 18 ng/mL. Moreover, in series [2], the pKa is 3.5. The Papp in [7] worked out at 2.1 ×10⁻⁶ cm/s. In [14], this compound had an AUC(0-inf) of 40 ng·h/mL.

Turning to `Cn1nccc1-c1cc(Cl)ccc1Oc1cc(F)c(S(=O)(=O)Nc2ncns2)cc1F`, the pKa in series [2] was found to be 3.5.

`Nc1n[nH]cc1-c1cc(C(F)(F)F)ccc1Oc1cc(F)c(S(=O)(=O)Nc2cscn2)cc1Cl`: the logD in series [1] worked out at 2.2. Further, in series [2], the pKa was 6.3.

Consider `Cc1[nH]ncc1-c1cc(C(F)(F)F)ccc1Oc1ccc(S(=O)(=O)Nc2ncns2)cc1C#N`, for which the solubility in series [4] was more than 300 µM. Moreover, the Vd in series [5] was found to be 1.8 L/kg; in series [11], 6.3 L/kg. The compound further displayed an AUC(0-inf) in series [6] of 26 ng·h/mL. The compound further showed a logD in [1] of 2. The compound also registered a pKa in series [2] of 3.5. The Papp in series [7] was 1.1 ×10⁻⁶ cm/s. Also, the concentration in [9] peaked (Cmax) at 4 ng/mL. The bioavailability in [10] is less than 5%.

The compound `CN1CC(n2nccc2-c2cc(Cl)ccc2Oc2cc(F)c(S(=O)(=O)Nc3ncns3)cc2F)C1` had a logD in series [1] of 1.

In series [4], `Nc1[nH]ncc1-c1cc(Cl)ccc1Oc1cc(F)c(S(=O)(=O)Nc2cscn2)cc1Cl` [PF-05089771] registered a solubility of less than 0.3 µM. For the same compound, the Vd in series [5] turned out to be 0.2 L/kg; in series [18] it was 0.15 L/kg. Further, in series [15], the Papp A→B amounted to 0.7 ×10⁻⁶ cm/s. In addition, the values for the Cmax in series [16], in series [19] and in series [9] were 11 ng/mL, 998 ng/mL and 541 ng/mL, respectively. For the same compound, the fCmax in series [17] stood at 226 nM. In addition, in series [1], the log distribution coefficient (logD) is 2.3 to 2.6. The pKa in [2] came out at 6.3. Besides, in [20], the bioavailability came to 110%. For the same compound, in [7], the Papp came to 3.8 ×10⁻⁶ cm/s. For the same compound, the apparent permeability from basolateral to apical (Papp B→A) in series [21] was 6.3 ×10⁻⁶ cm/s. Also, the time to peak (Tmax) was determined as 0.9 h in [22] and 2 h in [23].

`CCN1CC(n2nccc2-c2cc(Cl)ccc2Oc2ccc(S(=O)(=O)Nc3cscn3)cc2C#N)C1` [PF-05150122] registered a solubility in series [4] of more than 262 µM. The Vd in series [5] stood at 0.9 L/kg; in series [18], 0.41 L/kg; in series [11] it was 29.7 L/kg. For the same compound, the Papp A→B in series [15] was less than 0.5 ×10⁻⁶ cm/s. Further, the values for the peak concentration (Cmax) in series [16] and in [9] were 0.67 ng/mL and 92.7 ng/mL, respectively. For the same compound, in series [1], the logD turned out to be 1.4. Moreover, the values for the pKa in [2] and in series [24] were 6.5 and 7.4, respectively. Also, the bioavailability in series [20] is 52%; in series [10] it was 68%. Further, the Papp in series [7] came to 3.2 ×10⁻⁶ cm/s. Further, in series [21], the Papp B→A was determined as 11 ×10⁻⁶ cm/s. Further, the Tmax in [23] is 0.3 h.

Take `O=S(=O)(Nc1nncs1)c1cc(Cl)c(Oc2ccc(C(F)(F)F)cc2-c2ccnnc2)cc1F` [PF-05186462]: the solubility in [4] stood at 286 µM (≈ 152 µg/mL). Further, the Vd in series [5] is 0.5 L/kg; in series [18], 0.18 L/kg; in [11] it was 11 L/kg. Further, the Papp A→B in series [15] was less than 0.5 ×10⁻⁶ cm/s. Besides, the Cmax in [16] stood at 4.8 ng/mL; in [19], 2890 ng/mL; in series [9], 73.2 ng/mL. Also, in [1], the logD was 0.8 to 0.9. The pKa in [2] stood at 4.3; in [3] it was 4. Further, the bioavailability in [20] is 101%; in series [25], 54%; in [10] it was 16%. For the same compound, in [7], the Papp amounted to 0.7 ×10⁻⁶ cm/s. Also, the Papp B→A in series [21] came to 1.1 ×10⁻⁶ cm/s. The Tmax in series [22] and in [23] was 1.5 h in each case.
